Assay results as given in PubChem BioAssay (NCI).
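All cell lines were grown in 96-well plates and treated with compound for 48 hours. GI50 is the concentration that inhibits growth by half. TGI denotes the concentration required for complete inhibition of growth.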

Columns and labels:
Assay in all cases: inhibition of tumour cell growth, NCI panel, 48 h
KM12 colon = tested on: KM12 colon
UO-31 renal = tested on: UO-31 renal
A498 renal = tested on: A498 renal
MALME-3M melanoma = tested on: MALME-3M melanoma
HOP-92 NSCLC = tested on: HOP-92 NSCLC
DU-145 prostate = tested on: DU-145 prostate
SNB-19 CNS = tested on: SNB-19 CNS
SW-620 colon = tested on: SW-620 colon
HT29 colon = tested on: HT29 colon
UACC-62 melanoma = tested on: UACC-62 melanoma
OVCAR-5 ovarian = tested on: OVCAR-5 ovarian
K-562 leukemia = tested on: K-562 leukemia
SK-OV-3 ovarian = tested on: SK-OV-3 ovarian
MDA-MB-435 = tested on: MDA-MB-435
M14 melanoma = tested on: M14 melanoma
NCI-H460 lung = tested on: NCI-H460 lung
A549 NSCLC = tested on: A549 NSCLC
HCC-2998 colon = tested on: HCC-2998 colon
HCT-116 colon = tested on: HCT-116 colon
HOP-62 NSCLC = tested on: HOP-62 NSCLC
MOLT-4 leukemia = tested on: MOLT-4 leukemia
OVCAR-3 ovarian = tested on: OVCAR-3 ovarian
HS 578T breast = tested on: HS 578T breast
RPMI-8226 leukemia = tested on: RPMI-8226 leukemia
RXF 393 renal = tested on: RXF 393 renal
T-47D breast = tested on: T-47D breast
COLO 205 colon = tested on: COLO 205 colon
HL-60(TB) leukemia = tested on: HL-60(TB) leukemia
MDA-MB-231 breast = tested on: MDA-MB-231 breast
SNB-75 CNS = tested on: SNB-75 CNS
SK-MEL-28 melanoma = tested on: SK-MEL-28 melanoma
786-0 renal = tested on: 786-0 renal
ACHN renal = tested on: ACHN renal
OVCAR-8 ovarian = tested on: OVCAR-8 ovarian
CCRF-CEM leukemia = tested on: CCRF-CEM leukemia
HCT-15 colon = tested on: HCT-15 colon
U251 CNS = tested on: U251 CNS
TK-10 renal = tested on: TK-10 renal
OVCAR-4 ovarian = tested on: OVCAR-4 ovarian
SR leukemia = tested on: SR leukemia
IGROV1 ovarian = tested on: IGROV1 ovarian
NCI-H522 lung = tested on: NCI-H522 lung
MDA-MB-468 breast = tested on: MDA-MB-468 breast
SK-MEL-2 melanoma = tested on: SK-MEL-2 melanoma
LOX IMVI melanoma = tested on: LOX IMVI melanoma
SF-268 CNS = tested on: SF-268 CNS
SF-295 CNS = tested on: SF-295 CNS
SF-539 CNS = tested on: SF-539 CNS
PC-3 prostate = tested on: PC-3 prostate
SN12C renal = tested on: SN12C renal
NCI-H23 lung = tested on: NCI-H23 lung
BT-549 breast = tested on: BT-549 breast
MCF7 breast = tested on: MCF7 breast
EKVX NSCLC = tested on: EKVX NSCLC
SK-MEL-5 melanoma = tested on: SK-MEL-5 melanoma
CAKI-1 renal = tested on: CAKI-1 renal
NCI-H226 lung = tested on: NCI-H226 lung
UACC-257 melanoma = tested on: UACC-257 melanoma

COc1ccccc1NC(=O)c1ccc(NC(=O)CCl)s1
GI50 (KM12 colon): 14.7 µM
TGI (KM12 colon): 38.8 µM
GI50 (UO-31 renal): 13.7 µM
TGI (UO-31 renal): 27.3 µM
GI50 (A498 renal): 87.4 µM
TGI (A498 renal): > 100 µM
GI50 (MALME-3M melanoma): 15.1 µM
TGI (MALME-3M melanoma): 30.5 µM
GI50 (HOP-92 NSCLC): 16.5 µM
TGI (HOP-92 NSCLC): 34.7 µM
GI50 (DU-145 prostate): 24.7 µM
TGI (DU-145 prostate): 85 µM
GI50 (SNB-19 CNS): 32.4 µM
TGI (SNB-19 CNS): > 100 µM
GI50 (SW-620 colon): 4.27 µM
TGI (SW-620 colon): 21.7 µM
GI50 (HT29 colon): 8.76 µM
TGI (HT29 colon): 22.9 µM
GI50 (UACC-62 melanoma): 16.1 µM
TGI (UACC-62 melanoma): 31 µM
GI50 (OVCAR-5 ovarian): 23.6 µM
TGI (OVCAR-5 ovarian): 49.2 µM
GI50 (K-562 leukemia): 2.65 µM
TGI (K-562 leukemia): > 100 µM
GI50 (SK-OV-3 ovarian): 29.5 µM
TGI (SK-OV-3 ovarian): 74.9 µM
GI50 (MDA-MB-435): 15.7 µM
TGI (MDA-MB-435): 32.5 µM
GI50 (M14 melanoma): 13.1 µM
TGI (M14 melanoma): 28.7 µM
GI50 (NCI-H460 lung): 11 µM
TGI (NCI-H460 lung): 35.4 µM
GI50 (A549 NSCLC): 14.7 µM
TGI (A549 NSCLC): 40 µM
GI50 (HCC-2998 colon): 28.6 µM
TGI (HCC-2998 colon): > 100 µM
GI50 (HCT-116 colon): 5.52 µM
TGI (HCT-116 colon): 30.5 µM
GI50 (HOP-62 NSCLC): 36.4 µM
TGI (HOP-62 NSCLC): > 100 µM
GI50 (MOLT-4 leukemia): 4.23 µM
TGI (MOLT-4 leukemia): 40.6 µM
GI50 (OVCAR-3 ovarian): 13.6 µM
TGI (OVCAR-3 ovarian): 29 µM
GI50 (HS 578T breast): 15.1 µM
TGI (HS 578T breast): 54.4 µM
GI50 (RPMI-8226 leukemia): 13.6 µM
TGI (RPMI-8226 leukemia): 38.6 µM
GI50 (RXF 393 renal): 11.6 µM
TGI (RXF 393 renal): 25.1 µM
GI50 (T-47D breast): 42.3 µM
TGI (T-47D breast): > 100 µM
GI50 (COLO 205 colon): 15.1 µM
TGI (COLO 205 colon): 35.5 µM
GI50 (HL-60(TB) leukemia): 4.76 µM
TGI (HL-60(TB) leukemia): 35.6 µM
GI50 (MDA-MB-231 breast): 15.2 µM
TGI (MDA-MB-231 breast): 33.7 µM
GI50 (SNB-75 CNS): 11.5 µM
TGI (SNB-75 CNS): 83.2 µM
GI50 (SK-MEL-28 melanoma): 21.9 µM
TGI (SK-MEL-28 melanoma): 54.1 µM
GI50 (786-0 renal): 12.3 µM
TGI (786-0 renal): 26.1 µM
GI50 (ACHN renal): 10.5 µM
TGI (ACHN renal): 24.5 µM
GI50 (OVCAR-8 ovarian): 12.7 µM
TGI (OVCAR-8 ovarian): 33.8 µM
GI50 (CCRF-CEM leukemia): 3.62 µM
TGI (CCRF-CEM leukemia): 88.1 µM
GI50 (HCT-15 colon): 4.29 µM
TGI (HCT-15 colon): 29 µM
GI50 (U251 CNS): 13.9 µM
TGI (U251 CNS): 28.1 µM
GI50 (TK-10 renal): 20.4 µM
TGI (TK-10 renal): 73.6 µM
GI50 (OVCAR-4 ovarian): 21 µM
TGI (OVCAR-4 ovarian): 68.7 µM
GI50 (SR leukemia): 3.11 µM
TGI (SR leukemia): > 100 µM
GI50 (IGROV1 ovarian): 15.6 µM
TGI (IGROV1 ovarian): 34.9 µM
GI50 (NCI-H522 lung): 10.6 µM
TGI (NCI-H522 lung): 24 µM
GI50 (MDA-MB-468 breast): 12.4 µM
TGI (MDA-MB-468 breast): 27.7 µM
GI50 (SK-MEL-2 melanoma): 13.9 µM
TGI (SK-MEL-2 melanoma): 29.2 µM
GI50 (LOX IMVI melanoma): 4.81 µM
TGI (LOX IMVI melanoma): 18.5 µM
GI50 (SF-268 CNS): 18.8 µM
TGI (SF-268 CNS): 64.2 µM
GI50 (SF-295 CNS): 25.9 µM
TGI (SF-295 CNS): > 100 µM
GI50 (SF-539 CNS): 16.2 µM
TGI (SF-539 CNS): 30.8 µM
GI50 (PC-3 prostate): 11.1 µM
TGI (PC-3 prostate): 28.4 µM
GI50 (SN12C renal): 13.4 µM
TGI (SN12C renal): 36 µM
GI50 (NCI-H23 lung): 13.6 µM
TGI (NCI-H23 lung): 31.2 µM
GI50 (BT-549 breast): 12.2 µM
TGI (BT-549 breast): 26.8 µM
GI50 (MCF7 breast): 5.02 µM
TGI (MCF7 breast): 44 µM
GI50 (EKVX NSCLC): 18 µM
TGI (EKVX NSCLC): 67.7 µM
GI50 (SK-MEL-5 melanoma): 15.3 µM
TGI (SK-MEL-5 melanoma): 29.4 µM
GI50 (CAKI-1 renal): 12.8 µM
TGI (CAKI-1 renal): 29 µM
GI50 (NCI-H226 lung): 14.6 µM
TGI (NCI-H226 lung): 32.4 µM
GI50 (UACC-257 melanoma): 24.3 µM
TGI (UACC-257 melanoma): > 100 µM
